Measurements reported in publication PMC8482815, “Targeting Host Glycolysis as a Strategy for Antimalarial Development” (Frontiers in Cellular and Infection Microbiology, 2021).
Where “and” joins values, the source holds several entries; their conditions need not be identical. Identical values can stand only once.

Tested on: human erythrocytes
Test: Untargeted metabolomics and 13C-glucose tracing of enolase inhibitor treated erythrocytes
Format: cell-based
Conditions: 6h
Description: Freshly collected erythrocytes were washed, resuspended to 10% hematocrit in buffer [25mM HEPES (pH 7.4), 120mM NaCl, 5.4mM KCl, 1.8mM CaCl2, and 1mM NaH2PO4], incubated for 1 hour at 37°C, then centrifuged at 2000xg for 5 minutes at 4°C, resuspended in fresh wash buffer to 30-40% hematocrit, and split into 210µL aliquots of packed erythrocytes. […] All samples were incubated at 37°C shaking at 500 RPM. Triplicate samples of supernatants and packed erythrocytes were collected at 0, 0.5, 1, and 6-hour intervals and snap-frozen in liquid N2.
RBC and media samples were extracted at 1:10 and 1:20 dilutions, respectively, in 5:3:2 MeOH : MeCN:H2O v/v/v, and supernatants analyzed on a Thermo Vanquish UHPLC coupled to a Thermo Q Exactive mass spectrometer, as extensively described ([Nemkov et al., 2015]; [Nemkov et al., 2017]). The extraction buffer was supplemented with 40uM 3-^13C lactate to allow absolute quantification of lactate isotopologues, including lactate generated via glycolysis ([1,2,3-^13C3] enriched) vs. the pentose phosphate pathway ([2,3-^13C2] enriched), as described ([Reisz et al., 2016]). Metabolite assignments, peak area integration and isotopologues distributions were determined using Maven (Princeton University) ([Nemkov et al., 2015]; [Nemkov et al., 2017]).
Data were auto-scaled and normalized to zero-hour time points. Metabolites were removed from the dataset if greater than 50% of the samples contained missing values or the relative standard deviation among replicates exceeded 25%. Additionally, data was filtered using the interquartile range to reduce near-constant values from the experiment by 5%.
A principal component analysis of preprocessed data was plotted with the 95% confidence interval minimum volume enclosing ellipsoid for each respective group (MetaboAnalyst, cluster, plotly). A two-way repeated measures analysis of variance (ANOVA) was performed with multiple comparisons corrected for using a false discovery rate p-value cutoff of 0.05. Metabolite-Pathway analysis was performed using the R package of MetaboAnalyst, as previously described ([Xia and Wishart, 2010]). Metabolite-Protein nodal analysis was performed using omicsnet.ca and as previously described ([Zhou and Xia, 2018]).

[1] = treated erythrocytes, one value per replicate sample, polarity +
[2] = treated erythrocytes, one value per replicate sample, polarity -
[3] = treated erythrocytes, replicate samples

## CC(C)(C)C(=O)OCOP(=O)(OCOC(=O)C(C)(C)C)C1CC(O)N(O)C1=O (stereo not shown) [POMSF]
Replicate samples
  AMP level (metabolomics signal): 5.02E+05 and 4.09E+05 and 5.85E+05
  ATP level (metabolomics signal): 1.58E+04 and 9.84E+04 and 9.63E+04
  Adenine level (metabolomics signal): 7.75E+04 and 1.23E+05 and 1.12E+05
  Cytosine level (metabolomics signal): 8.05E+04 and 4.16E+04 and 5.19E+04
  L-alanine level (metabolomics signal): 8.35E+06 and 9.19E+06 and 8.31E+06
  L-arginine level (metabolomics signal): 2.95E+06 and 0.00E+00 and 2.67E+06
  L-asparagine level (metabolomics signal): 5.77E+06 and 5.60E+06 and 5.22E+06
  L-aspartate level (metabolomics signal): 1.31E+07 and 1.25E+07 and 1.18E+07
  L-cysteine level (metabolomics signal): 3.97E+05 and 1.14E+05 and 2.20E+05
  L-glutamate level (metabolomics signal): 7.50E+06 and 6.15E+06 and 6.74E+06
  L-glutamine level (metabolomics signal): 6.26E+07 and 5.76E+07 and 5.48E+07
  L-histidine level (metabolomics signal): 1.46E+06 and 1.38E+06 and 1.44E+06
  L-isoleucine level (metabolomics signal): 1.17E+07 and 1.31E+07 and 1.49E+07
  L-leucine level (metabolomics signal): 1.27E+08 and 1.58E+08 and 2.15E+08
  L-lysine level (metabolomics signal): 1.43E+06 and 1.33E+06 and 1.52E+06
  L-methionine level (metabolomics signal): 1.27E+07 and 1.48E+07 and 1.83E+07
  L-phenylalanine level (metabolomics signal): 6.89E+06 and 7.47E+06 and 8.39E+06
  L-proline level (metabolomics signal): 7.25E+07 and 6.63E+07 and 6.78E+07
  L-serine level (metabolomics signal): 4.64E+06 and 4.68E+06 and 4.28E+06
  L-threonine level (metabolomics signal): 6.95E+06 and 7.99E+06 and 7.08E+06
  L-tryptophan level (metabolomics signal): 1.43E+06 and 1.21E+06 and 1.71E+06
  L-tyrosine level (metabolomics signal): 1.74E+07 and 2.17E+07 and 2.50E+07
  L-valine level (metabolomics signal): 1.73E+08 (2×) and 1.89E+08
  dCMP level (metabolomics signal): 0.00E+00 and 1.19E+04 and 1.51E+04
  dTMP level (metabolomics signal): 2.61E+04 and 1.28E+06 and 7.09E+05
  glycine level (metabolomics signal): 1.74E+06 and 1.71E+06 and 1.54E+06
[1]
  N-Acyl-D-aspartate (C06380) metabolite signal: 6.19E+04 and 7.22E+04 and 7.18E+04
  Poly-gamma-D-glutamate (C05723) metabolite signal: 4.28E+07 and 3.89E+07 and 3.91E+07
[2]
  D-Ribitol 5-phosphate (C01068) metabolite signal: 0.00E+00 and 1.62E+04 and 1.65E+04
  D-glucono-1,5-lactone (C00198) metabolite signal: 1.21E+04 and 2.10E+05 and 2.85E+05
  L-Noradrenaline (C00547) metabolite signal: 1.67E+04 and 1.81E+04 and 3.13E+04
  Oxalosuccinate (C05379) metabolite signal: 3.74E+04 and 9.19E+04 and 1.02E+05
  Pyridoxamine (C00534) metabolite signal: 1.97E+04 and 7.81E+03 and 6.44E+03
  Thioredoxin disulfide (C00343) metabolite signal: 0.00E+00 and 8.04E+04 and 2.51E+04
[3]
  1-4-beta-D-Xylan (metabolite signal): 2.44E+04 and 1.72E+05 and 1.77E+05
  2-Hydroxyglutarate/Citramalate (C02630) metabolite signal: 8.76E+03 and 5.83E+04 and 8.08E+04
  5-6-Dihydrothymine (C00906) metabolite signal: 7.42E+04 and 3.03E+05 and 2.79E+05
  5-10-Methenyltetrahydrofolate (metabolite signal): 1.08E+05 and 1.27E+05 (2×)
  5-Hydroxyisourate (C11821) metabolite signal: 4.60E+06 and 7.03E+06 and 4.57E+06
  5-L-Glutamyl-taurine (metabolite signal): 1.69E+05 and 1.70E+05 and 1.66E+05
  5-Oxoproline (metabolite signal): 7.65E+04 and 8.27E+05 and 8.67E+05
  (S)(+)-Allantoin (C02350) metabolite signal: 1.76E+03 and 8.43E+03 and 0.00E+00
  Allantoate (C00499) metabolite signal: 5.45E+05 and 3.06E+05 and 4.74E+05
  Ascorbate (metabolite signal): 3.17E+02 and 8.49E+04 and 7.10E+04
  CMP-N-acetylneuraminate (metabolite signal): 0.00E+00 and 1.60E+04 and 3.30E+04
  Carnosine (metabolite signal): 1.68E+05 and 2.26E+05 and 1.66E+05
  Citrate (C00158) metabolite signal: 1.56E+03 and 1.77E+04 and 2.42E+04
  Creatine (metabolite signal): 1.60E+08 and 1.66E+08 and 1.57E+08
  Creatinine (metabolite signal): 2.21E+06 and 2.25E+06 and 2.28E+06
  Cys-Gly (metabolite signal): 7.06E+05 and 5.27E+05 and 4.56E+05
  D-Glucosamine (metabolite signal): 2.84E+05 and 2.82E+05 and 2.01E+05
  D-Glucose (C00031) metabolite signal: 3.39E+04 and 4.32E+06 and 3.64E+06
  D-Ribose (C00121) metabolite signal: 1.37E+04 and 1.43E+05 and 1.11E+05
  Dehydroascorbate (metabolite signal): 0.00E+00 and 3.73E+04 and 1.82E+04
  Dihydrofolate (metabolite signal): 1.85E+06 and 9.70E+05 and 1.18E+06
  Dimethylglycine (metabolite signal): 7.46E+05 and 8.20E+05 and 5.98E+05
  Diphosphate (C00013) metabolite signal: 0.00E+00 and 2.99E+04 and 2.16E+04
  Fumarate (C00122) metabolite signal: 3.34E+03 and 7.81E+04 and 1.06E+05
  Glutathione (C00051) metabolite signal: 4.14E+07 and 3.33E+07 and 3.37E+07
  Glutathione disulfide (metabolite signal): 0.00E+00 and 1.62E+05 and 3.64E+05
  Hypoxanthine (C00262) metabolite signal: 7.62E+03 and 4.26E+03 and 3.54E+03
  IMP (C00130) metabolite signal: 1.27E+04 and 8.26E+04 and 5.76E+04
  Inosine (C00294) metabolite signal: 1.21E+03 and 4.59E+04 and 5.50E+04
  L-Citrulline (metabolite signal): 2.43E+06 and 3.35E+06 and 2.92E+06
  L-Homoserine (metabolite signal): 1.60E+04 and 2.75E+05 and 2.50E+05
  Lactate (C01432) metabolite signal: 9.68E+05 and 1.69E+07 and 1.76E+07
  Malate (C00149) metabolite signal: 3.14E+03 and 1.07E+05 and 1.56E+05
  Mannitol (C00392) metabolite signal: 6.48E+03 and 1.86E+05 and 1.78E+05
  N-Acetylneuraminate (metabolite signal): 0.00E+00 and 1.33E+04 and 1.50E+04
  N-Glycoloyl-neuraminate (metabolite signal): 0.00E+00 and 1.02E+05 and 7.37E+04
  NAD+ (C00003) metabolite signal: 5.65E+04 and 4.00E+04 and 9.30E+04
  Nicotinamide (C00153) metabolite signal: 2.54E+07 and 3.18E+07 and 2.67E+07
  Ornithine (metabolite signal): 1.63E+06 and 1.68E+06 and 1.77E+06
  Oxaloacetate (C00036) metabolite signal: 1.48E+03 and 3.44E+04 and 3.60E+04
  Phosphoserine (metabolite signal): 5.41E+04 and 5.91E+04 and 2.74E+04
  Putrescine (metabolite signal): 3.78E+04 and 4.55E+04 and 4.46E+04
  Pyridoxal (C00250) metabolite signal: 3.76E+04 and 4.39E+04 and 5.36E+04
  Pyruvate (C00022) metabolite signal: 8.68E+04 and 2.04E+06 and 2.17E+06
  S-Glutathionyl-L-cysteine (metabolite signal): 0.00E+00 and 1.18E+05 and 1.30E+05
  Sedoheptulose 1-phosphate (C06222) metabolite signal: 0.00E+00 and 1.66E+04 and 1.92E+04
  Spermidine (metabolite signal): 6.37E+06 and 6.43E+06 and 6.27E+06
  Spermine (metabolite signal): 8.12E+06 and 8.01E+06 and 7.75E+06
  Succinate (C00042) metabolite signal: 1.40E+04 and 6.55E+04 and 4.55E+04
  Thymidine (C00214) metabolite signal: 4.03E+04 and 7.72E+03 and 7.98E+03
  UDP (C00015) metabolite signal: 0.00E+00 and 1.32E+05 and 7.27E+04
  UDP-N-acetyl-D-glucosamine (metabolite signal): 0.00E+00 and 6.00E+03 and 1.01E+04
  UDP-glucose (C00029) metabolite signal: 0.00E+00 and 8.80E+03 and 1.03E+04
  Urate (C00366) metabolite signal: 1.39E+04 and 2.30E+04 and 2.01E+04
  Xanthine (C00385) metabolite signal: 8.29E+04 and 9.81E+04 and 9.24E+04
  alpha-D-Glucosamine 1-phosphate (metabolite signal): 8.54E+05 and 1.67E+06 and 1.26E+06
  alpha-D-Ribose 1-phosphate (C00620) metabolite signal: 0.00E+00 and 2.89E+04 and 3.75E+04
  gamma-Glutamyl-gamma-aminobutyrate (metabolite signal): 5.89E+04 and 6.64E+04 and 6.00E+04
  gamma-L-Glutamyl-D-alanine (metabolite signal): 3.86E+02 and 3.06E+04 and 3.37E+04
  gamma-L-Glutamyl-L-cysteine (metabolite signal): 4.08E+03 and 2.68E+04 and 3.24E+04
